Values after ≈ are worked out from the molar mass of the structure shown.
Legend:
[1] = tested on: M. tuberculosis H37Rv; assay: Resazurin reduction microtiter assay (REMA), growth inhibition and MIC determination; type: cell-based; conditions: Mycobacterium tuberculosis, 168 h, 7 days at 37° C.; for inhibition at 20 µM: at 20 uM compound, read-out: H37Rv inh % at 20 uM; for MIC: two-fold serial dilution from 100 to 0.16 μM, read-out: H37Rv MIC90
[2] = molecular target: T1, human PLK1 kinase domain (Homo sapiens, UniProt P53350); assay: In vitro PLK1 assay (IMAP fluorescence polarization kinase assay); type: biochemical; conditions: for IC50: 30 nM PLK1 kinase domain, 16 μM ATP (=Kmapp), 90 min at room temperature; for inhibition at 10 µM: at 10 uM compound
T1 construct: Each reaction consisted of 30 nM enzyme PLK1 kinase domain
Procedure: The activity of the compounds described in the present invention was determined using a commercially available IMAP Screening Express Assay Kit (Molecular devices).
This method measures the change in the fluorescent polarization of a fluorescently-labeled peptide due to the effect of human PLK1 kinase domain on it. PLK1 kinase assays were performed in low protein binding 384-well plates (Corning 3676). Test compounds were diluted in 100% DMSO to 5 mM stock concentration, the further dilutions were made in H2O or 100% DMSO to desirable concentrations.
Each reaction consisted of 30 nM enzyme PLK1 kinase domain, 400 nM 5TAMRA-RGSFNDTLDFD-NH2 (Genecust Europe), 16 μM ATP (=Kmapp, Sigma-Aldrich) and kinase buffer: 20 mM HEPES pH 7.5 (Sigma-Aldrich), 1 mM DTT (Sigma-Aldrich), 10 mM MgCl2 (Sigma-Aldrich), 0.01% Triton X-100 (Sigma-Aldrich).
For each reaction, 4 or 6 μl containing 5TAMRA-RGSFNDTLDFD-NH2, ATP and kinase buffer were combined with 2 μl diluted compound in H2O or 0.04 μl compound in 100% DMSO. The kinase reaction was started by the addition of 2 μl diluted enzyme. The reaction was allowed to run for 90 minutes at room temperature. The reaction was stopped by adding 15 μl IMAP beads (1:1200 beads in progressive (40% buffer A, 60% buffer B) 1× buffer). After an additional 60 minutes, fluorescent polarization (Ex: 550-10 nm, Em: 590-10 nm, Dich: 561 nm) was measured using Analyst GT multimode reader (Molecular Devices).

T1 sequence (P53350 53-305 limits assumed): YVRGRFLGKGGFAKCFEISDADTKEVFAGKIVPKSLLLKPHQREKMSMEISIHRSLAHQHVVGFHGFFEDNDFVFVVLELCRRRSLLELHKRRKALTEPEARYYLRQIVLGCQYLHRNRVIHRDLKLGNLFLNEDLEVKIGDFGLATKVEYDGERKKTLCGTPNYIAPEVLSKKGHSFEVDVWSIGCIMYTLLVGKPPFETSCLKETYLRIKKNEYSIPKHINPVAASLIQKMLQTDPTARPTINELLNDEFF

| SMILES | inhibition at 20 µM [1] | IC50 [2] | inhibition at 10 µM [2] | MIC [1] |
| --- | --- | --- | --- | --- |
| Cc1noc(NS(=O)(=O)c2ccc(Nc3cc(-c4ccc(F)cc4F)ncn3)cc2)c1C [Example 21, 4-[6-(2,4-Difluoro-phenyl)-pyrimidin-4-ylamino]-N-(3,4-dimethyl-isoxazol-5-yl)-benzenesulfonamide] | -3.7% | 0.368 µM | 65.8% | – |
| Cc1noc(NS(=O)(=O)c2ccc(Nc3cc(-c4c(F)cccc4OC(C)C)ncn3)cc2)c1C [Example 23, N-(3,4-Dimethyl-isoxazol-5-yl)-4-[6-(2-fluoro-6-isopropoxy-phenyl)-pyrimidin-4-ylamino]-benzenesulfonamide] | 102% | 1.78 µM | 70.4% | 10.2 µM (≈ 5.1 µg/mL) |
| Cc1noc(NS(=O)(=O)c2ccc(Nc3cc(-c4cc(Cl)ccc4OC(C)C)ncn3)cc2)c1C [Example 24, 4-[6-(5-Chloro-2-isopropoxy-phenyl)-pyrimidin-4-ylamino]-N-(3,4-dimethyl-isoxazol-5-yl)-benzenesulfonamide] | -20.4% | 3.75 µM | 80.7% | – |
| Cc1noc(NS(=O)(=O)c2ccc(Nc3cc(-c4ccc(C(F)(F)F)cc4)ncn3)cc2)c1C [Example 25, N-(3,4-Dimethyl-isoxazol-5-yl)-4-[6-(4-trifluoromethyl-phenyl)-pyrimidin-4-ylamino]-benzenesulfonamide] | -9.8% | – | 0% | – |
| Cc1noc(NS(=O)(=O)c2ccc(Nc3cc(-c4ccccc4C(N)=O)ncn3)cc2)c1C [Example 26, 2-{6-[4-(3,4-Dimethyl-isoxazol-5-ylsulfamoyl)-phenylamino]-pyrimidin-4-yl}-benzamide] | -34.2% | – | 0% | – |
| CC(=O)Nc1ccc(-c2cc(Nc3ccc(S(=O)(=O)Nc4onc(C)c4C)cc3)ncn2)cc1 [Example 27, N-(4-{6-[4-(3,4-Dimethyl-isoxazol-5-ylsulfamoyl)-phenylamino]-pyrimidin-4-yl}-phenyl)-acetamide] | -11.9% | 0.372 µM | 68.7% | – |
| COc1cc(Cl)ccc1-c1cc(Nc2ccc(S(=O)(=O)Nc3onc(C)c3C)cc2)ncn1 [Example 28, 4-[6-(4-Chloro-2-methoxy-phenyl)-pyrimidin-4-ylamino]-N-(3,4-dimethyl-isoxazol-5-yl)-benzenesulfonamide] | 0.6% | 0.059 µM | 61.9% | – |
| COc1ccc(COc2ccccc2-c2cc(Nc3ccc(S(=O)(=O)Nc4onc(C)c4C)cc3)ncn2)cc1 [Example 29, N-(3,4-Dimethyl-isoxazol-5-yl)-4-{6-[2-(4-methoxy-benzyloxy)-phenyl]-pyrimidin-4-ylamino}-benzenesulfonamide] | -14.2% | – | 36% | – |
| COc1ccccc1-c1cc(Nc2ccc(S(=O)(=O)Nc3nnc(C)s3)cc2)ncn1 [Example 32, 4-[6-(2-Methoxy-phenyl)-pyrimidin-4-ylamino]-N-(5-methyl-[1,3,4]thiadiazol-2-yl)-benzenesulfonamide] | 100% | 0.917 µM | 63.5% | 18.5 µM (≈ 8.41 µg/mL) |
| COc1ccccc1-c1cc(Nc2ccc(S(=O)(=O)Nc3cc(C)on3)cc2)ncn1 [Example 33, 4-[6-(2-Methoxy-phenyl)-pyrimidin-4-ylamino]-N-(5-methyl-isoxazol-3-yl)-benzenesulfonamide] | -30.6% | – | 57.8% | – |
| Cc1noc(NS(=O)(=O)c2ccc(Nc3cc(-c4cccc(C#N)c4)ncn3)cc2)c1C [Example 34, 4-[6-(3-Cyano-phenyl)-pyrimidin-4-ylamino]-N-(3,4-dimethyl-isoxazol-5-yl)-benzenesulfonamide] | -4.3% | – | 58.5% | – |
| COc1cccc(-c2cc(Nc3ccc(S(=O)(=O)Nc4onc(C)c4C)cc3)ncn2)c1 [Example 35, N-(3,4-Dimethyl-isoxazol-5-yl)-4-[6-(3-methoxy-phenyl)-pyrimidin-4-ylamino]-benzenesulfonamide] | -8.1% | 2.49 µM | 77.1% | – |

Reference: US20150368209A1, “4-Pyrimidinylamino-benzenesulfonamide derivatives and their use for the inhibition of polo-like kinase 1 (PLK1) for the treatment of cancer and their use for the treatment of bacterial infections” (VICHEM CHEMIE KUTATÓ KFT., priority 2013, published 2015)
